Test [1] has as its target T1, human recombinant 5-HT transporter (SERT) (Homo sapiens, UniProt P31645).
T1 construct: host or cells: CHO-S / SERT (h), cell membrane homogenates
Briefly: biochemical. The conditions noted are these: for inhibition at 0.2 µM / inhibition at 0.1 µM: read-out: SERT % inhibition. It is filed as binding.

Test [2] concerns the target T2, human full-length recombinant serotonin 5-HT2A receptors (Homo sapiens, UniProt P28223).
T2 construct: human full-length recombinant serotonin 5-HT2A receptors expressed in HEK-293E cells
In words: biochemical. Type of test: binding. The following applies: for inhibition at 0.1 µM: read-out: 5-HT2A % inhibition.

Test [3] has as its target human recombinant dopamine D1 receptor (Homo sapiens, UniProt P21728). In words: Dopamine D1 receptor binding, [3H]SCH 23390 displacement. The following applies: for inhibition at 0.1 µM: read-out: D1 % inhibition.
The target of test [4] is human recombinant dopamine D2 short receptor (Homo sapiens, UniProt P14416). Briefly: Dopamine D2 receptor binding, [3H]7-OH-DPAT displacement. The following applies: for inhibition at 0.1 µM: read-out: D2 % inhibition.
Where [5] appears, read: inhibition at 100 nM, NI = no inhibition.

Where two headings read alike, the source gives them in different places. Where only a bound is given, the exact number is not on record here.

Here are results for 16 compounds from article PMC11181336, “Discovery of ITI-333, a Novel Orally Bioavailable Molecule Targeting Multiple Receptors for the Treatment of Pain and Other Disorders” (Journal of Medicinal Chemistry, 2024).

Chain of human recombinant dopamine D1 receptor (P21728 whole entry): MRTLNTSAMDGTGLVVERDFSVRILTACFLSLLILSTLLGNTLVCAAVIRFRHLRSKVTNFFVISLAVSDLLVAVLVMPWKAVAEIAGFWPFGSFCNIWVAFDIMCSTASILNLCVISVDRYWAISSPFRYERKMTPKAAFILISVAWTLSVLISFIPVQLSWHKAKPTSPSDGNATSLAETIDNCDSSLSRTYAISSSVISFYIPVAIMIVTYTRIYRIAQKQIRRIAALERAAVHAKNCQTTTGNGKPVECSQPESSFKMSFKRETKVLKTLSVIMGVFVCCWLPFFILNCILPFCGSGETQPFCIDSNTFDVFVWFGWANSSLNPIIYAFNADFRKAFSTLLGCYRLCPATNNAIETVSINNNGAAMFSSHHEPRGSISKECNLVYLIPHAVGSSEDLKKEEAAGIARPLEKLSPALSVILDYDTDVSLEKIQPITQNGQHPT
T1 sequence (P31645 whole entry): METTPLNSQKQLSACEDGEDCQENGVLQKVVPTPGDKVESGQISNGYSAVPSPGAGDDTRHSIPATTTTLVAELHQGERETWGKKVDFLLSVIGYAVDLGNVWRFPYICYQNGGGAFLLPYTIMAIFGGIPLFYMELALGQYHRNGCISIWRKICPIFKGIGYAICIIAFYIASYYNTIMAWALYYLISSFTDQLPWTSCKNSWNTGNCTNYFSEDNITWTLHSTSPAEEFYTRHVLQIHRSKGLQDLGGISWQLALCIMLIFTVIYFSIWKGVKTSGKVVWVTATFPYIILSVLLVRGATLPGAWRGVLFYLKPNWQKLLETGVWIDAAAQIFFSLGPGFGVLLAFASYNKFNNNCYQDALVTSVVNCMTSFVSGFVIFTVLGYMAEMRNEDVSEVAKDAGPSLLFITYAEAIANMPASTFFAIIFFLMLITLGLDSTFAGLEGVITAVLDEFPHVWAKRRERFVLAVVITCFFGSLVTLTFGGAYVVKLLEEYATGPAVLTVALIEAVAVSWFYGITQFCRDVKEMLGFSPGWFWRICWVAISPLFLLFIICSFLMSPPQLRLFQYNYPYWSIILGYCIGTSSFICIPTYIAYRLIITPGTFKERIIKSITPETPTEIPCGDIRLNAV
T2 sequence (P28223 whole entry): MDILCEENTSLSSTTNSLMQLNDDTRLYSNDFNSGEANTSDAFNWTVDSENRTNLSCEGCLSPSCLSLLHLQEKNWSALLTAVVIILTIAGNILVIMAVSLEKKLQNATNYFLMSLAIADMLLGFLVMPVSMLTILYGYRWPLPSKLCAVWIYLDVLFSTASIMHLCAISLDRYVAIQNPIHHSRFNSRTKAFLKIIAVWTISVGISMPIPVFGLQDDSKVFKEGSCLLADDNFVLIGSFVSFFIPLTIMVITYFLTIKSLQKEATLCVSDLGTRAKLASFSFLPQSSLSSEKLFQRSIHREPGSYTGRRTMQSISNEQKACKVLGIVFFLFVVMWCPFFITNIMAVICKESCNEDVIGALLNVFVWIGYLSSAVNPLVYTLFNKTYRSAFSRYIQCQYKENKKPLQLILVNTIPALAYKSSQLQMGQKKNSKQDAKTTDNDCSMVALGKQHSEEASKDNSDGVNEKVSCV
Chain of human recombinant dopamine D2 short receptor (P14416 1-414 isoform P14416-2): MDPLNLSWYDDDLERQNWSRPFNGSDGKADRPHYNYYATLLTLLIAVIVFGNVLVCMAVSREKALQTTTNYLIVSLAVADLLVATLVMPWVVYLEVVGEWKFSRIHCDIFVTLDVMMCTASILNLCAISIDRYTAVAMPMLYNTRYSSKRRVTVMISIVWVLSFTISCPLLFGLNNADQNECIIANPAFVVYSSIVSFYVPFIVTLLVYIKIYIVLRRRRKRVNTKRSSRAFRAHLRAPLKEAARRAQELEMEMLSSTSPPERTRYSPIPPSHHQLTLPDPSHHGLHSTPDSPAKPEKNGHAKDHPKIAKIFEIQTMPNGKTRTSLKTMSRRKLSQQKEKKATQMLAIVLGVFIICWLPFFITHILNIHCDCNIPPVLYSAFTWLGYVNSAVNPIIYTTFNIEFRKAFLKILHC

By inhibition is commonly meant the percentage by which the read-out fell short of the control. With `CCCCN1CC[C@H]2[C@@H](C1)c1cccc3c1N2CC(=O)N3` [compound 21, (6bR,10aS)-8-Butyl-6b,7,8,9,10,10a-hexahydro-1H-pyrido[3′,4′:4,5]pyrrolo[1,2,3-de]quinoxalin-2(3H)-one], the inhibition at 0.2 µM in test [1] is less than 0%. The inhibition at 0.1 µM is less than 0% in test [2], less than 0% in test [3] (setting [5]) and 15% in test [4] (setting [5]).
For `Cc1ccc(OCCCN2CC[C@H]3[C@@H](C2)c2cccc4c2N3CC(=O)N4)cc1` [compound 32, (6bR,10aS)-8-(3-(p-Tolyloxy)propyl)-6b,7,8,9,10,10a-hexahydro-1H-pyrido[3′,4′:4,5]pyrrolo[1,2,3-de]-quinoxalin-2(3H)-one], the inhibition at 0.1 µM in test [1] came out at 9.6%; in test [2], 62%; in test [3] (setting [5]), 13%; in test [4] (setting [5]), 20%.
On the same counts, the results for `O=C1CN2c3c(cccc3[C@@H]3CN(CCCCOc4ccc(F)cc4)CC[C@@H]32)N1` [compound 50, (6bR,10aS)-8-(4-(4-Fluorophenoxy)butyl)-6b,7,8,9,10,10a-hexahydro-1H-pyrido[3′,4′:4,5]pyrrolo[1,2,3-de]quinoxalin-2(3H)-one] are less than 0%, 37%, 5.4% and 27%.
In the case of `O=C1CN2c3c(cccc3[C@@H]3CN(CCOc4ccc(F)cc4)CC[C@@H]32)N1` [compound 49, (6bR,10aS)-8-(2-(4-Fluorophenoxy)ethyl)-6b,7,8,9,10,10a-hexahydro-1H-pyrido[3′,4′:4,5]pyrrolo[1,2,3-de]quinoxalin-2(3H)-one], the inhibition at 0.1 µM in test [1] was less than 0%; in test [2], 48%; in test [3] (setting [5]), 10%; in test [4] (setting [5]), 24%.
Regarding `COc1ccc(OCCCN2CC[C@H]3[C@@H](C2)c2cccc4c2N3CC(=O)N4)cc1` [compound 34, (6bR,10aS)-8-(3-(4-Methoxyphenoxy)propyl)-6b,7,8,9,10,10a-hexahydro-1H-pyrido[3′,4′:4,5]pyrrolo-[1,2,3-de]quinoxalin-2(3H)-one], the inhibition at 0.1 µM in test [1] was 10%; in test [2], less than 0%; in test [3] (setting [5]) it was less than 0%.
For `O=C1CN2c3c(cccc3[C@@H]3CN(CCCO)CC[C@@H]32)N1` [compound 22, (6bR,10aS)-8-(3-Hydroxypropyl)-6b,7,8,9,10,10a-hexahydro-1H-pyrido[3′,4′:4,5]pyrrolo[1,2,3-de]quinoxalin-2(3H)-one], the inhibition at 0.2 µM in test [1] was less than 0%. In addition, the inhibition at 0.1 µM in test [2] is 8%; in test [3] (setting [5]) it was less than 0%; in test [4] (setting [5]), less than 0%.
As for `NC(=O)c1cc(F)ccc1OCCCN1CC[C@H]2[C@@H](C1)c1cccc3c1N2CC(=O)N3` [compound 38, 5-Fluoro-2-(3-((6bR,10aS)-2-oxo-2,3,6b,9,10,10a-hexahydro-1H-pyrido[3′,4′:4,5]pyrrolo[1,2,3-de]quinoxalin-8(7H)-yl)propoxy)benzamide], the inhibition at 0.1 µM in test [1] is 9.6%; in test [2], 14%; in test [3] (setting [5]) it was less than 0%; in test [4] (setting [5]), less than 0%.
Usually Ki stands for a dissociation constant, usually derived from enzyme kinetics or from competition with a known ligand. As for `O=C1CN2c3c(cccc3[C@@H]3CN(CCCOc4ccccc4)CC[C@@H]32)N1` [compound 23, (6bR,10aS)-8-(3-Phenoxypropyl)-6b,7,8,9,10,10a-hexahydro-1H-pyrido[3′,4′:4,5]-pyrrolo[1,2,3-de]quinoxalin-2(3H)-one], the inhibition at 0.2 µM in test [1] worked out at 8%. The Ki in test [2] came to 2.8 nM. Besides, the values for the inhibition at 0.1 µM in test [2], in test [3] and in test [4] were 84%, 24% and 34%, respectively.
As to `CN(CCCN1CC[C@H]2[C@@H](C1)c1cccc3c1N2CC(=O)N3)c1ccc(F)cc1` [compound 48, (6bR,10aS)-8-(3-((4-Fluorophenyl)(methyl)amino)propyl)-6b,7,8,9,10,10a-hexahydro-1H-pyrido[3′,4′:4,5]pyrrolo[1,2,3-de]quinoxalin-2(3H)-one], the inhibition at 0.2 µM in test [1] worked out at 53%. In addition, the results for the inhibition at 0.1 µM in test [2], in test [3] (setting [5]) and in test [4] (setting [5]) were 76%, 21% and 14%, respectively.
As for `O=C1CN2c3c(cccc3[C@H]3CN(CCCOc4ccc(F)cc4)CC[C@H]32)N1` [compound 54, (6bS,10aR)-8-(3-(4-Fluorophenoxy)propyl)-6b,7,8,9,10,10a-hexahydro-1H-pyrido[3′,4′:4,5]pyrrolo[1,2,3-de]quinoxalin-2(3H)-one], the inhibition at 0.1 µM in test [1] was less than 0%. Besides, in test [3], the “D1(Ki or (% Inhibition)): % inhibition” value was 75 (50%) and the inhibition at 0.1 µM stood at 50%.
Consider `O=C1CN2c3c(cccc3[C@@H]3CN(CCCc4n[nH]c5cc(F)ccc45)CC[C@@H]32)N1` [compound 24, (6bR,10aS)-8-(3-(6-Fluoro-1H-indazol-3-yl)propyl)-6b,7,8,9,10,10a-hexahydro-1H-pyrido[3′,4′:4,5]pyrrolo-[1,2,3-de]quinoxalin-2(3H)-one], for which the Ki in test [1] was 540 nM; in test [2], 2.6 nM; in test [3], 5.2 nM; in test [4], 15 nM.
With `O=C1CN2c3c(cccc3[C@@H]3CN(CCCOc4ccc(F)cc4)CC[C@H]32)N1` (racemic) [compound 20, (±)-(trans)-8-(3-(4-Fluorophenoxy)propyl)-6b,7,8,9,10,10a-hexahydro-1H-pyrido[3′,4′:4,5]pyrrolo[1,2,3-de]quinoxalin-2(3H)-one], the inhibition at 0.1 µM in test [1] is less than 0%. Also, in test [3], the “D1(Ki or (% Inhibition)): % inhibition” value was 5.6 (79%) and the inhibition at 0.1 µM amounted to 79%.
`O=C1CN2c3c(cccc3[C@@H]3CN(CCCOc4ccc(O)cc4)CC[C@@H]32)N1` [compound 33, (6bR,10aS)-8-(3-(4-Hydroxyphenoxy)propyl)-6b,7,8,9,10,10a-hexahydro-1H-pyrido[3′,4′:4,5]pyrrolo-[1,2,3-de]quinoxalin-2(3H)-one]: the inhibition at 0.1 µM in test [1] is 11%; in test [2] it was 77%; in test [3] (setting [5]), less than 0%; in test [4] (setting [5]) it was 41%.
The matching figures for `O=C1CN2c3c(cccc3[C@@H]3CN(CCCOc4cccc(F)c4)CC[C@@H]32)N1` [compound 37, (6bR,10aS)-8-(3-(3-Fluorophenoxy)propyl)-6b,7,8,9,10,10a-hexahydro-1H-pyrido[3′,4′:4,5]pyrrolo[1,2,3-de]quinoxalin-2(3H)-one]: 7.7%, 78%, 32% and 14%.
As to `O=C1CN2c3c(cccc3[C@@H]3CN(CCCc4noc5cc(F)ccc45)CC[C@@H]32)N1` [compound 26, (6bR,10aS)-8-(3-(6-Fluorobenzo[d]isoxazol-3-yl)propyl)-6b,7,8,9,10,10a-hexahydro-1H-pyrido[3′,4′:4,5]-pyrrolo[1,2,3-de]quinoxalin-2(3H)-one], the Ki in test [2] stood at 3.1 nM; in test [3] it was 13 nM; in test [4], 84 nM. Moreover, in test [4], the “fold weaker affinity to dopamine D2 receptors” value is reported as “over 5 fold”.
`O=C1CN2c3c(cccc3[C@@H]3CN(CCCOc4ccc5c(c4)OCO5)CC[C@@H]32)N1` [compound 28, (6bR,10aS)-8-(3-(Benzo[d][1,3]dioxol-5-yloxy)propyl)-6b,7,8,9,10,10a-hexahydro-1H-pyrido[3′,4′:4,5]-pyrrolo[1,2,3-de]quinoxalin-2(3H)-one]: the inhibition at 0.1 µM in test [2] and in test [3] (setting [5]) was less than 0% in each case.
